# Measured values published in US11208391B2, “Polymorphs and new path to synthesize Tafamidis” (AZAD PHARMA AG, priority 2018, dated 2021).
# Assay: Pressure resistance of the crystalline form (hydraulic press, then PXRD/DSC)
# Format: physicochemical
# Conditions: pressed 3-5 seconds at 1.5 MPa, Perkin Elmer hydraulic press, 13 mm stamp, material of method 1 (pentane/heptane), compared with non-pressed form
# Experimental: The diffraction measurements were performed at ambient conditions on a PANalytical X'Pert PRO θ-θ diffractometer of 240 mm of radius in reflection geometry, equipped with Cu Kα radiation and a PIXcel detector, operated at 45 kV and 40 mA. Each sample was mounted on a zero-background silicon holder and allowed to spin at 0.25 rev/s during data collection. The measurement angular range was 3.0-40.0° (2θ) with a step size of 0.013°. The scanning speed was 0.0821°/s (40.80 s/step).
# Dry samples were pressed at the indicated pressures in a Perkin Elmer hydraulic press using a 13 mm stamp for a time period of 3-5 seconds.
# The dried filter cake obtained by the above described method 1 was pressed for 3-5 seconds at 1.5 MPa using a Perkin Elmer hydraulic press and 13 mm tableting stamp. The resulting material was subjected to a DSC and a PXRD-experiment. The results are depicted in FIG. 13 (DSC) and FIG. 14 (PXRD). […] This feature renders this polymorph suitable for processing in the course of tableting, especially.
compound,measurement,setting,value
"CNC[C@H](O)[C@@H](O)[C@H](O)[C@H](O)CO.O=C(O)c1ccc2nc(-c3cc(Cl)cc(Cl)c3)oc2c1 [crystalline Tafamidis meglumine, 2-(3,5-dichlorophenyl)-1,3-benzoxazole-6-carboxylic acid * (2R,3R,4R,5S)-6-(methyl-amino)-hexane-1,2,3,4,5-pentol]",PXRD diffraction pattern / structure of the crystalline form upon pressure treatment,,does not change upon pressure treatment
same,PXRD diffraction pattern / structure of the crystalline form upon pressure treatment,listed as crystalline form,insensitive to pressure
